The record followed here is US20220151983A1, “COMPOUNDS FOR INHIBITING FUCOSYLATION AND METHODS FOR USING THE SAME” (SCORE PHARMA, INC., priority 2019, published 2022).

Where a name gives a salt, the structure may show the parent alone. Read-outs that look alike come from different tables or passages of the source.

The target in experiment [1] is T1, fucosyltransferase (FUT-8) (Homo sapiens, UniProt Q9BYC5).
T1 sequence (Q9BYC5 1-575): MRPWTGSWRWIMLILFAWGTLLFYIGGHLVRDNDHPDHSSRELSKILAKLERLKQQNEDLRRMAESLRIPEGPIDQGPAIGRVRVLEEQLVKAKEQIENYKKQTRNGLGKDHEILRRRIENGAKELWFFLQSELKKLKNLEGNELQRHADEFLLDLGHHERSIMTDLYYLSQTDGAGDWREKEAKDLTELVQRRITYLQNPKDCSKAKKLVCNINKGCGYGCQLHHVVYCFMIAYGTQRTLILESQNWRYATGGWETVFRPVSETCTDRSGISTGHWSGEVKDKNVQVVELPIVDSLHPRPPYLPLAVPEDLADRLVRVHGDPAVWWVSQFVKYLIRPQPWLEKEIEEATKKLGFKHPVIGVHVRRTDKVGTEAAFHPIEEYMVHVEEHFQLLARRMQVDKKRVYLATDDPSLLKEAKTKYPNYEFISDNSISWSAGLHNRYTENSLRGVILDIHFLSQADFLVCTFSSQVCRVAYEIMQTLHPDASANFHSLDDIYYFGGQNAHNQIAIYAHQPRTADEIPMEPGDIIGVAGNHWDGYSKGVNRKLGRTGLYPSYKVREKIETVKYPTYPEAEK
In words: Inhibition of fucosyltransferase (FUT-8) activity, detection of fucosylation of the substrate protein. The conditions noted are these: for inhibition at 10 µM: read-out: Primary Screen (10 μM), inhibition value. It counts as biochemical. As for the experimental part:
Briefly, a compound was combined with fucosyltransferase (FUT-8) and appropriate substrates and incubated for 1 hour. The reaction was terminated, and a detection reagent mixture was added to detect the amount of fucosylation of the substrate protein.

Experiment [2] deals with CHO cells producing an anti-IL8 IgG monoclonal antibody (ATCC CRL-12445). In words: Reduction of fucosylation of anti-IL8 mAb produced by CHO cells, LC-MS analysis. Format: cell-based. The text has this:
Briefly, Epicatechin Monogallate (ECG), Epicatechin-3-Monogallate (ECGC) and Aurin Tricarboxylic Acid (ATA) were included in the cell culture media and added to CHO cells producing an anti-IL8 IgG monoclonal antibody (mAb) obtained from [NT] CRL-12445), which is also described in U.S. Pat. No. 6,025,158, which is hereby incorporated by reference in its entirety. After a specified period of time the cells were harvested and the anti-IL8 mAb purified by standard methods. Purified anit-IL8 mAbs were then reduced by the addition of dithiothreitol and subjected to LC-MS analysis to determine the level of fucosylation. The decrease in the level of anti-IL8 fucosylation are depicted in FIG. 20 AND FIG. 21.

Where [3] appears, read: 10 μM compound, incubated for 1 hour.
Setting [4] is: incubated for 1 hour, read-out: IC50 Value.

With `O=C1C=C2CC3(O)COc4c(ccc(O)c4O)C3=C2C=C1O` (centres unmarked), the inhibition at 10 µM in experiment [1] (setting [3]) stood at 82%. In addition, in experiment [1] (setting [4]), the IC50 was less than 10 µM.
Regarding `CCN(CC)CCNc1ccc(CO)c2sc3ccccc3c(=O)c12` [Hycanthone, reference compound], the inhibition at 10 µM in experiment [1] (setting [3]) is 27%. In experiment [1] (setting [4]), the half-inhibitory concentration (IC50) was more than 10 µM.
In the case of `O=C(O[C@@H]1Cc2c(O)cc(O)cc2O[C@@H]1c1ccc(O)c(O)c1)c1cc(O)c(O)c(O)c1` [Epicatechin Monogallate], in experiment [1] (setting [3]), the inhibition at 10 µM worked out at 25%. The IC50 in experiment [1] (setting [4]) is more than 10 µM. The figures for the reduction in fucosylation in experiment [2] (10-fold lower concentration than 100 μM) and in experiment [2] (maximum concentration (100 μM) in cell culture media) were 13% and 25%, respectively. Moreover, the “core fucosylated species, with concomitant rise in the afucosylated species” value in experiment [2] (dose dependence) is on record as “dose dependent decrease”.
On to `O=c1cc(-c2ccccc2)oc2cc(O)cc(O)c12` [Chrysin], for which, in experiment [1] (setting [3]), the inhibition at 10 µM is 30%. Besides, in experiment [1] (setting [4]), the IC50 is more than 10 µM.
Turning to `O=C(O)C1=CC(=C(c2ccc(O)c(C(=O)O)c2)c2ccc(O)c(C(=O)O)c2)C=CC1=O` [Aurin Tricarboxylic Acid], in experiment [1] (setting [3]), the inhibition at 10 µM turned out to be 34%. Also, the IC50 in experiment [1] (setting [4]) is more than 10 µM. Also, the “change of fucosylation level” value in experiment [2] (either concentration tested (data not shown)) is given as “did not alter the fucosylation level”.
`O=c1c(O)cccc2cc(O)c(O)c(O)c12` [Purpurogallin]: the inhibition at 10 µM in experiment [1] (setting [3]) was found to be 30%. Further, in experiment [1] (setting [4]), the IC50 is more than 10 µM.
Take `O=C1c2c(O)ccc(O)c2C(=O)c2c(NCCNCCO)ccc(NCCNCCO)c21` [Mitoxanthrone Hydrocloride, Mitoxanthrone Hydrochloride, reference compound]: in experiment [1] (setting [3]), the inhibition at 10 µM was found to be 49%. Further, the concentration for half-maximal inhibition (IC50) in experiment [1] (setting [4]) was more than 10 µM.
Regarding `O=C(OC[C@H]1O[C@@H](OC(=O)c2cc(O)c(O)c(OC(=O)c3cc(O)c(O)c(O)c3)c2)[C@H](OC(=O)c2cc(O)c(O)c(OC(=O)c3cc(O)c(O)c(O)c3)c2)[C@@H](OC(=O)c2cc(O)c(O)c(OC(=O)c3cc(O)c(O)c(O)c3)c2)[C@@H]1OC(=O)c1cc(O)c(O)c(OC(=O)c2cc(O)c(O)c(O)c2)c1)c1cc(O)c(O)c(OC(=O)c2cc(O)c(O)c(O)c2)c1` [Tannic Acid], in experiment [1] (setting [3]), the inhibition at 10 µM is 93%. Also, the IC50 in experiment [1] (setting [4]) is less than 10 µM.
Regarding Carboplatin [reference compound], the “Primary Screen (10 μM), inhibition value” in experiment [1] (setting [3]) stood at 45%. Moreover, the IC50 in experiment [1] (setting [4]) is more than 10 µM.
As to `O=c1cc(-c2ccccc2)oc2cc(O)c(O)c(O)c12` [Baicalein], the inhibition at 10 µM in experiment [1] (setting [3]) stood at 29%.
In the case of `Cc1cc2c(C(C)C)c(O)c(O)c(C=O)c2c(O)c1-c1c(C)cc2c(C(C)C)c(O)c(O)c(C=O)c2c1O` [Gossypol], in experiment [1], the IC50 was more than 10 µM and the inhibition at 10 µM turned out to be 26%.
For the molecule `Oc1c(Cl)cc(Cl)c(Cl)c1Cc1c(O)c(Cl)cc(Cl)c1Cl` [Hexachlorophene, reference compound], in experiment [1], the half-maximal inhibitory concentration (IC50) is more than 10 µM and the inhibition at 10 µM came to 40%.
In the case of `O=C(O[C@@H]1Cc2c(O)cc(O)cc2O[C@@H]1c1cc(O)c(O)c(O)c1)c1cc(O)c(O)c(O)c1`, the inhibition at 10 µM in experiment [1] (setting [3]) was determined as 39%. Moreover, the half-maximal inhibitory concentration (IC50) in experiment [1] (setting [4]) was more than 10 µM. The molecule further had a reduction in fucosylation in experiment [2] (10 μM in cell culture media) of 6%.
As to `C[n+]1c2cc(N)ccc2cc2ccc(N)cc21` [Acriflavinium], in experiment [1] (setting [3]), the inhibition at 10 µM turned out to be 47%. In addition, the IC50 in experiment [1] (setting [4]) is more than 10 µM.
On to `O=c1cc(-c2ccccc2)oc2cccc(O)c12` [Primuletin], for which the inhibition at 10 µM in experiment [1] (setting [3]) turned out to be 30%. For the same molecule, in experiment [1] (setting [4]), the IC50 was more than 10 µM.
Regarding `Cc1ccc(C(=O)Nc2ccc(S(=O)(=O)O)c3cc(S(=O)(=O)O)cc(S(=O)(=O)O)c23)cc1NC(=O)c1cccc(NC(=O)Nc2cccc(C(=O)Nc3cc(C(=O)Nc4ccc(S(=O)(=O)O)c5cc(S(=O)(=O)O)cc(S(=O)(=O)O)c45)ccc3C)c2)c1` [Suramin, reference compound], the inhibition at 10 µM in experiment [1] (setting [3]) came out at 70%. In experiment [1] (setting [4]), the IC50 is less than 10 µM.
Consider `O=C1c2c(O)cccc2Cc2cccc(O)c21` [Anthralin, reference compound], for which the inhibition at 10 µM in experiment [1] (setting [3]) stood at 28%. Also, the IC50 in experiment [1] (setting [4]) is more than 10 µM.
As to `COc1ccc(-c2cc(=O)c3c(O)cc(O)cc3o2)cc1O` [Diometin], in experiment [1] (setting [3]), the inhibition at 10 µM was 35%.
`O=C(O[C@@H]1Cc2c(O)cc(O)cc2O[C@@H]1c1cc(O)c(=O)c2c(O)c(O)cc([C@H]3Oc4cc(O)cc(O)c4C[C@H]3O)c2c1)c1cc(O)c(O)c(O)c1` [Theaflavin Monogallate]: the inhibition at 10 µM in experiment [1] (setting [3]) worked out at 88%. In addition, the IC50 in experiment [1] (setting [4]) is less than 10 µM.
For the molecule `C=C1c2cccc(O)c2C(=O)C2=C(O)[C@]3(O)C(=O)C(C(N)=O)=C(O)[C@@H](N(C)C)[C@@H]3[C@@H](O)[C@H]12` [Methacycline, reference compound], the “Primary Screen (10 μM), inhibition value” in experiment [1] (setting [3]) was determined as 82%. Besides, the half-inhibitory concentration (IC50) in experiment [1] (setting [4]) was less than 10 µM.
As for `CCOc1ccc2nc3cc(N)ccc3c(N)c2c1` [Ethcridine Lactate, Etheridine Lactate], the inhibition at 10 µM in experiment [1] (setting [3]) was found to be 26%. The IC50 in experiment [1] (setting [4]) is more than 10 µM.
Turning to `N.N.[Cl][Pt][Cl]` [Cisplatin, reference compound], the “Primary Screen (10 μM), inhibition value” in experiment [1] (setting [3]) was determined as 60%. Moreover, in experiment [1] (setting [4]), the IC50 was more than 10 µM.
